Assay results: ChEMBL document CHEMBL1146891, “Preparation of 1-(3-aminobenzo[d]isoxazol-5-yl)-1H-pyrazolo[4,3-d]pyrimidin-7(6H)-ones as potent, selective, and efficacious inhibitors of coagulation factor Xa” (Bioorg Med Chem Lett, 2006)

Columns and labels:
Coagulation factor X [1] = target: T1, Coagulation factor X (Homo sapiens, UniProt P00742); test: Anticoagulant activity in human plasma measured as activated partial thromboplastin time; format: functional, cell-free
Coagulation factor X [2] = target: T1, Coagulation factor X; test: Binding affinity to human f10a
[3] = target: Coagulation factor VII/tissue factor (Homo sapiens) (UniProt P08709+P13726); test: Anticoagulant activity in human plasma measured as prothrombin time; format: functional, cell-free
[4] = Apparent permeability in Caco-2 cells; format: ADME, cell-based; details: human
[5] = Bioavailability in dog at 0.5 mg/kg, iv and 0.2 mg/kg, po; format: ADME, organism-based, Canis lupus familiaris; details: in vivo
[6] = Half life in dog at 0.5 mg/kg, iv and 0.2 mg/kg, po; format: ADME, organism-based, Canis lupus familiaris; details: in vivo
[7] = Volume of distribution in dog at 0.5 mg/kg, iv and 0.2 mg/kg, po; format: ADME, organism-based, Canis lupus familiaris; details: in vivo, read-out: Vdss
[8] = Clearance in dog at 0.5 mg/kg, iv and 0.2 mg/kg, po; format: ADME, organism-based, Canis lupus familiaris; details: in vivo

T1 sequence (P00742 41-179 limits assumed): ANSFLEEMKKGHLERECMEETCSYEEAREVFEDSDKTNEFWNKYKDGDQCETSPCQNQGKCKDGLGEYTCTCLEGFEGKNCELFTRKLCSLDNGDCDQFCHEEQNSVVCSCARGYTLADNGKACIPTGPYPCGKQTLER
T1 sequence (P00742 235-488 limits assumed): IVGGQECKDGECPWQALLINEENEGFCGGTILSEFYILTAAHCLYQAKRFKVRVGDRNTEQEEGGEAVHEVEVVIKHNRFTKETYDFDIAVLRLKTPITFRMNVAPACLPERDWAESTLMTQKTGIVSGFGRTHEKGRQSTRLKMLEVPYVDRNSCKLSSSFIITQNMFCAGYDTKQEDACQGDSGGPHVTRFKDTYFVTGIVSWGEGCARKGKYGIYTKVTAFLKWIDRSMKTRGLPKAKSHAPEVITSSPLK

2aPTT (Coagulation factor X [1]) [µM]	Ki (Coagulation factor X [2]) [nM]	2PT [3] [µM]	Papp [4] [×10⁻⁶ cm/s]	bioavailability [5] [%]	half-life [6] [h]	Vd [7] [L/kg]	clearance [8] [mL/min/kg]	SMILES
37.8	0.35	14.9						CN(C)Cc1nccn1-c1ccc(-n2c(=O)[nH]c3c(C(F)(F)F)nn(-c4ccc5onc(N)c5c4)c3c2=O)c(F)c1
352	0.22	92.6						Nc1noc2ccc(-n3nc(C(F)(F)F)c4[nH]c(=O)n(-c5ccc(-c6ccccc6CN6CCC(O)CC6)cc5)c(=O)c43)cc12
1.6	1.6	2.3						CCOC(=O)c1nn(-c2ccc3onc(N)c3c2)c2c(=O)n(-c3ccc(-c4ccccc4CN4CCCC4)cc3)cnc12
3	1.5	1.9						Cc1nn(-c2ccc3onc(N)c3c2)c2c(=O)n(-c3ccc(-c4ccccc4CNC(C)C)cc3)cnc12
			6.1	23	4.2	8.9	28.3	Cc1nn(-c2ccc3onc(N)c3c2)c2c(=O)n(-c3ccc(-c4ccccc4CN(C)C)cc3)c(C)nc12.O=C(O)C(F)(F)F
			4.7	48	3.8	6.6	20	Cc1nn(-c2ccc3onc(N)c3c2)c2c(=O)n(-c3ccc(-c4ccccc4CN4CC[C@@H](O)C4)cc3)c(C)nc12.O=C(O)C(F)(F)F
2	0.35	4						Cc1nn(-c2ccc3onc(N)c3c2)c2c(=O)n(-c3ccc(-c4ccccc4CN(C)C(C)C)cc3)c(C)nc12
	3.2							CN(C)Cc1ccccc1-c1ccc(-c2cnc3c(C(F)(F)F)nn(-c4ccc5onc(N)c5c4)c3c2O)cc1
638	0.77	230						Nc1nc2c(C(F)(F)F)nn(-c3ccc4onc(N)c4c3)c2c(O)c1-c1ccc(-c2ccccc2CN2CCC(O)CC2)cc1
			19	63	14	13	11.7	Cc1nc2c(C(F)(F)F)nn(-c3ccc4onc(N)c4c3)c2c(=O)n1-c1ccc(-c2ccccc2CN(C)C)cc1.O=C(O)C(F)(F)F
1.6	1.3	1.1						Cc1nn(-c2ccc3onc(N)c3c2)c2c(=O)n(-c3ccc(-c4ccccc4CN4CCCC4)cc3)cnc12
	0.18							Cc1nc2c(C(F)(F)F)nn(-c3ccc4onc(N)c4c3)c2c(=O)n1-c1ccc(-c2ccccc2CN2CC[C@@H](O)C2)cc1 [listing 1 of 2 here]
8.1	1.7	3.1						Cc1nn(-c2ccc3onc(N)c3c2)c2c(=O)n(-c3ccc(-c4ccccc4CNCC4CC4)cc3)cnc12
18.6	0.5	10.9						Cc1nc2c(C(F)(F)F)nn(-c3ccc4onc(N)c4c3)c2c(=O)n1-c1ccc(-c2ccccc2CNCC2CC2)cc1
1.7								CN(C)Cc1ccccc1-c1ccc(N2CNc3c(C(F)(F)F)nn(-c4ccc5onc(N)c5c4)c3C2=O)cc1
74.5	0.11	24.1						Nc1noc2ccc(-n3nc(C(F)(F)F)c4[nH]c(=O)n(-c5ccc(-c6ccccc6CN6CC[C@@H](O)C6)cc5)c(=O)c43)cc12
				58	8.4	6.6	10	Cc1nc2c(C(F)(F)F)nn(-c3ccc4onc(N)c4c3)c2c(=O)n1-c1ccc(-c2ccccc2CN2CC[C@@H](O)C2)cc1.O=C(O)C(F)(F)F
	5.5							CN(C)Cc1ccccc1-c1ccc(-c2nnc3c(C(F)(F)F)nn(-c4ccc5onc(N)c5c4)c3c2O)cc1
2.1		1.3						Cc1nn(-c2ccc3onc(N)c3c2)c2c(=O)n(-c3ccc(-c4ccccc4CN(C)C)cc3)cnc12
4.3	0.5	2.1						Cc1nn(-c2ccc3onc(N)c3c2)c2c(=O)n(-c3ccc(-c4ccccc4CN4CC[C@H](O)C4)cc3)cnc12
28		6.6						Cc1nc2c(C(F)(F)F)nn(-c3ccc4onc(N)c4c3)c2c(=O)n1-c1ccc(-c2ccccc2CN2CC[C@@H](O)C2)cc1 [listing 2 of 2 here]
